From US11584775B2, “C4-modified oleanolic acid derivatives for inhibition of IL-17 and other uses” (REATA PHARMACEUTICALS, INC., priority 2015, dated 2023)

Columns and labels:
human RORγ = molecular target: T1, human RORγ (Homo sapiens, UniProt P51449); assay: RORγ assay (GAL4-RORγ hybrid luciferase reporter, inverse-agonist activity); type: cell-based; conditions: GAL4-RORγ hybrid reporter cells, 23 hours
T1 sequence (P51449 269-508 limits assumed): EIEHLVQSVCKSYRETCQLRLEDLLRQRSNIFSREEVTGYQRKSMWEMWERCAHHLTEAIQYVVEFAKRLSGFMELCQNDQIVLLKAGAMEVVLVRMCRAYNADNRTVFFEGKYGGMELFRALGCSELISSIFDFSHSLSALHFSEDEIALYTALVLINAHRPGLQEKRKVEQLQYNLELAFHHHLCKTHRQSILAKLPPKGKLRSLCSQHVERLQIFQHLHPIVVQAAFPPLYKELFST
From the text: C. RORγ Assay and Cell Viability
The RORγ assay system was purchased from Indigo Biosciences. This nuclear receptor assay utilizes a human cell line that has been engineered to express a hybrid form of the Human RAR-related Orphan Receptor Gamma (RORγ) at high levels. The N-terminal DNA binding domain (DBD) of the native RORγ receptor was substituted with the yeast GAL4-DBD to generate the GAL4-RORγ hybrid nuclear receptor. The reporter cell line is transfected with a plasmid that encodes the beetle luciferase gene under the control of the GAL4 upstream activating sequence (UAS). GAL4 binds to the UAS and increases transcription of downstream target genes. […] To assess the RORγ inverse-agonist activity of the test compounds, reporter cells were plated in white 96-well plates in triplicate and were treated with DMSO (vehicle) or test compound (concentration ranges of 0.4-200 nM or 2-1000 nM) at 37° C. with 5% CO2 in a humidified atmosphere for 23 hours. After this incubation, luciferin was added to the wells and luciferase activity was determined by measuring the luminescence signal using a BMG Pherastar microplate reader. Viability was determined using the Live Cell Multiplex Assay (Indigo Biosciences). Values from test compound samples were normalized to those from DMSO-treated samples. Data were analyzed using GraphPad Prism version 6.00 for Windows (GraphPad Software, La Jolla Calif. USA). A non-linear regression analysis with log (inhibitor) vs. normalized response using a variable slope was applied to fit the data and determine the IC50 values for inhibition of RORγ and cell viability.

hIL17 = assay: IL-17 release from differentiated primary human T-cells (IL-17A HTRF assay); type: cell-based; conditions: inhibition of IL-17A levels; primary human CD4+ T cells differentiated into Th17 cells, 46-hour incubation
Description: D. IL-17 Release from Differentiated Primary Human T-Cells and Cell Viability
Primary human cryopreserved CD4+ T Cells (Lonza, donor #0000402103) were plated in Lymphocyte Growth Medium-3 (LGM-3, Lonza) according to the manufacturer's recommendations, and allowed to recover for approximately 3 hours at 37° C. with 5% CO2 in a humidified atmosphere. After the recovery step, cells were collected by centrifugation and re-plated in 96-well plates at a density of ˜140,000 cells per well in LGM-3 medium that contained DMSO (vehicle) or test compound (2-500 nM or 4-1000 nM concentration range). Triplicate wells were plated for each test condition. DMSO (final concentration ≤0.1%) was used as the vehicle. Immediately after plating, CD4+ T cells were activated by adding Dynabeads Human T-Activator CD3/CD28 (Life Technologies; bead-to-cell ratio of 1:2.5) and differentiated into Th17 cells by adding a mixture of the following cytokines: transforming growth factor-β (TGF-β, 5 ng/mL), IL-6 (20 ng/mL), IL-23 (20 ng/mL), and […] (10 ng/mL). Undifferentiated control cells received only cytokine IL-2 (50 ng/mL). All human recombinant cytokines were purchased from R&D Systems. Following a 46-hour incubation at 37° C. with 5% CO2 in a humidified atmosphere, the plates were centrifuged for 3 minutes at 250×g, and half of the supernatant was transferred to a new plate to be used in the IL-17A assay (see below). Cell viability was assessed in the original plate using the CyQuant Direct Assay (Life Technologies). CyQuant values from test compound samples were normalized to those from DMSO-treated samples. The concentration of IL-17A in the supernatant was measured using the Homogeneous Time-Resolved Fluorescence (HTRF) assay (Cisbio Bioassays) according to the manufacturer's protocol. The assay was performed at room temperature in low volume, solid white 384-well plates (Greiner Bio-One). Samples and standards (serially-diluted human recombinant IL-17A (0 to 5,000 pg/mL concentration range; Cisbio Bioassays) were incubated with the anti-human IL-17A antibody conjugate for 16 hours and fluorescence was measured using a Pherastar FS microplate reader (BMG Labtech) in the HTRF mode (excitation at 337 nm and emission at 665 nm and 620 nm). IL-17A concentrations were assessed in duplicate aliquots of supernatant from each well resulting in a total of six readings per test condition. The 665 nm/620 nm signal ratio was calculated and the concentration of IL-17A in each sample was determined by interpolation from the standard curve. IL-17A values from test compound samples were normalized to those from DMSO-treated samples. Data were analyzed using GraphPad Prism version 6.00 for Windows (GraphPad Software, La Jolla Calif. USA). A non-linear regression analysis with log (inhibitor) vs. normalized response using a variable slope was applied to fit the data and determine the IC50 values for inhibition of IL-17A levels and cell viability.

NRF2 = assay: AREc32 luciferase reporter assay; type: cell-based, human; conditions: EC2×: concentration required to increase GST ARE Luciferase reporter activity by 2-fold; AREc32 cells, 19 hours
From the text: B. AREc32 Luciferase Reporter Assay
The AREc32 luciferase reporter assay allows for quantitative assessment of the endogenous activity of the Nrf2 transcription factor in cultured mammalian cells. AREc32 cells are derived from MCF-7 human breast carcinoma cells that were stably transfected with a reporter construct that contains the firefly luciferase gene located downstream of eight copies of the rat GSTA2 antioxidant response element (ARE) sequence (Wang et al., 2006; CXR Biosciences). Active NRF2 binds to the ARE sequences and increases expression of the firefly luciferase gene. To assess the NRF2-activating potential of the test compounds, AREc32 cells were plated in black 96-well plates at a density of 20,000 cells per well in triplicate in DMEM+10% FBS+0.8 mg/mL Geneticin and incubated at 37° C. with 5% CO2 in a humidified atmosphere. The next day, cells were treated with DMSO (vehicle) or test compound (concentration ranges of 0.4-200 nM or 2-1000 nM) for 19 hours. Luciferase activity was determined using the ONE-Glo Luciferase assay (Promega). The luminescence signal was measured on a BMG Pherastar microplate reader. The mean luminescence value from test compound-treated wells was normalized to that from DMSO-treated wells and was represented as fold-induction. Data were analyzed using GraphPad Prism version 6.00 for Windows, GraphPad Software, La Jolla Calif. USA. A non-linear regression curve with log (agonist) vs. response using a variable slope was used to fit the data. Where applicable, a maximum threshold value of 50-fold over DMSO was set. EC2× values were interpolated from the curve. EC2× corresponds to the concentration of test compound required to increase GST ARE Luciferase reporter activity by 2-fold.

[1] = system: IFNγ-induced Nitric Oxide production; assay: Nitric oxide production assay in RAW 264.7 mouse macrophages; type: cell-based; conditions: RAW264.7, suppression of IFNγ-induced NO production normalized to cell viability (WST-1), RAW 264.7, 24 hours IFNγ
Description: A. Nitric Oxide Production Assay and Cell Viability
RAW 264.7 mouse macrophages were plated in 96-well plates at a density of 30,000 cells per well in triplicate in RPMI 1640+0.5% FBS and incubated at 37° C. with 5% CO2 in a humidified atmosphere. The next day, cells were pre-treated with DMSO (vehicle) or test compound (concentration ranges of 0.4-200 nM or 2-1000 nM) for 2 hours and then treated with recombinant mouse IFNγ (R&D Systems) for 24 hours. Nitric oxide concentration in media was determined using the Griess reagent system (Promega). Cell viability was determined using WST-1 reagent (Roche). Values from test compound samples were normalized to those from DMSO/IFNγ-treated samples. IC50 values were determined based on the suppression of IFNγ-induced Nitric Oxide production normalized to cell viability.

Row | SMILES | IC50 (human RORγ) | IC50 (hIL17) | EC2x: concentration giving 2-fold induction of ARE luciferase reporter (NRF2) | IC50 [1]
1 | COC(=O)[C@]12CCC(C)(C)C[C@H]1[C@H]1C(=O)C=C3[C@@]4(C)C=C(C#N)C(=O)[C@@H](C)[C@@H]4CC[C@@]3(C)[C@]1(C)CC2 [Comparison Compound #1, reference compound] | 127 nM | 25 nM | 11 nM | 1.2 nM
2 | CC1(C)CC[C@]2(C(=O)NCC(F)(F)F)CC[C@]3(C)[C@H](C(=O)C=C4[C@@]5(C)C=C(C#N)C(=O)C(C)(C)[C@@H]5CC[C@]43C)[C@@H]2C1 [Comparison Compound #2, reference compound] | 104 nM | 40 nM | 53 nM | 4.5 nM
3 | CCNC(=O)[C@]12CCC(C)(C)C[C@H]1[C@H]1C(=O)C=C3[C@@]4(C)C=C(C#N)C(=O)C(C)(C)[C@@H]4CC[C@@]3(C)[C@]1(C)CC2 [Comparison Compound #3, reference compound] | 204 nM | 81 nM | 32 nM | 3.4 nM
4 | C[C@@H]1C(=O)C(C#N)=C[C@]2(C)C3=CC(=O)[C@@H]4[C@@H]5CC(C)(C)CC[C@]5(NC(=O)C(C)(F)F)CC[C@@]4(C)[C@]3(C)CC[C@@H]12 [Comparison Compound #4, reference compound] | 177 nM | 38 nM | 11 nM | 0.6 nM
5 | COC(=O)[C@]12CCC(C)(C)C[C@H]1[C@@]1(O)C(=O)C=C3[C@@]4(C)C=C(C#N)C(=O)C(C)(C)[C@@H]4CC[C@@]3(C)[C@]1(C)CC2 [Comparison Compound #5, reference compound] | 135 nM | 15 nM | 2 nM | 1.6 nM
6 | CC1(C)CC[C@@]23CC[C@@]4(C)[C@]5(C)CC[C@H]6C(C)(C)C(=O)C(C#N)=C[C@]6(C)C5=CC(=O)[C@]4(OC2=O)[C@@H]3C1 [Comparison Compound #6, reference compound] | 159 nM | 15 nM | 2 nM | 0.7 nM
7 | COC(=O)N[C@]12CCC(C)(C)C[C@H]1[C@H]1C(=O)C=C3[C@@]4(C)C=C(C#N)C(=O)C(C)(C)[C@@H]4CC[C@@]3(C)[C@]1(C)CC2 [Comparison Compound #7, reference compound] | 371 nM | 27 nM | 20 nM | 2.4 nM
8 | Cc1nnc([C@]23CCC(C)(C)C[C@H]2[C@H]2C(=O)C=C4[C@@]5(C)C=C(C#N)C(=O)C(C)(C)[C@@H]5CC[C@@]4(C)[C@]2(C)CC3)o1 [Comparison Compound #8, reference compound] | 222 nM | 32 nM | 15 nM | 2 nM
9 | Cc1noc([C@]23CCC(C)(C)C[C@H]2[C@H]2C(=O)C=C4[C@@]5(C)C=C(C#N)C(=O)C(C)(C)[C@@H]5CC[C@@]4(C)[C@]2(C)CC3)n1 [Comparison Compound #9, reference compound] | 176 nM | 18 nM | 12 nM | 1.2 nM
10 | COC(=O)[C@]12CCC(C)(C)C[C@H]1[C@H]1C(=O)C=C3[C@@]4(C)C=C(C#N)C(=O)[C@@](C)(CO)[C@@H]4CC[C@@]3(C)[C@]1(C)CC2 [Comparison Compound #300, reference compound] | 152 nM | 18 nM | 34 nM | 7.4 nM
11 | CCNC(=O)[C@]12CCC(C)(C)C[C@H]1[C@H]1C(=O)C=C3[C@@]4(C)C=C(C#N)C(=O)[C@@](C)(CO)[C@@H]4CC[C@@]3(C)[C@]1(C)CC2 [Compound T25, (4aS,6aR,6bS,8aR,9R,12aS,14aR,14bS)-11-cyano-N-ethyl-9-(hydroxymethyl)-2,2,6a,6b,9,12a-hexamethyl-10,14-dioxo-1,3,4,5,6,6a,6b,7,8,8a,9,10,12a,14,14a,14b-hexadecahydropicene-4a(2H)-carboxamide] |  | 67 nM | 131 nM | 16 nM
12 | CN(C)C(=O)[C@]1(C)C(=O)C(C#N)=C[C@]2(C)C3=CC(=O)[C@]45OC(=O)[C@@]6(CCC(C)(C)C[C@H]64)CC[C@@]5(C)[C@]3(C)CC[C@@H]12 [Compound T36, (4S,4aR,6aR,6bS,8aS,12aR,12bS,14bS)-2-cyano-N,N,4,6a,6b, 11,11,14b-octamethyl-3,13,16-trioxo-4,4a,5,6,6a,6b,7,8,10,11,12,12a,13,14b-tetradecahydro-3H,9H-12b,8a-(epoxymethano)picene-4-carboxamide] |  | 126 nM | >1000 nM | > 1000 nM
